This is an account of results in publication PMC6993007, “Protocol for bevacizumab purification using Ac-PHQGQHIGVSK-agarose” (MethodsX, 2019).

Data set [1] relates to bevacizumab. As to conditions: in words, Kd not given; ref [2]; cited from earlier work. The text has this: Bevacizumab is a monoclonal antibody, produced in CHO cells, used for the treatment of many human cancers. It is an anti-vascular endothelial growth factor (antsi-VEGF) that blocks the growth of tumor blood vessels. Nowadays its purification is achieved by affinity chromatography (AC) using protein A which is a very expensive ligand. […] This short peptide ligand has higher stability and lower cost than protein A and it can be prepared very easily by solid phase peptide synthesis. The ...

Data set [2] concerns bevacizumab. In words: Bevacizumab purification by Ac-PHQGQHIGVSK-agarose affinity chromatography from the CHO cell culture. Conditions: in words; mild elution conditions. As to the method: Material • Adsorption buffer: 20 mM sodium phosphate, pH 7.0, 1 M (NH4)2SO4 • A column containing 0.5 mL (0.5 × 2.5 cm) of Ac-PHQGQHIGVSK-agarose • Elution buffer: 20 mM sodium phosphate, pH 7.0 • Absorption UV/VIS spectrophotometer
Procedure • 1 Clarify the CHO cell culture containing bevacizumab by centrifugation or filtration. • 2 Add to the sample the amount of (NH4)2SO4 necessary to achieve a final concentration of 1 M. • 3 Equilibrate the chromatographic column containing Ac-PHQGQHIGVSK-agarose with 20 volumes of adsorption buffer. • 4 Load the column with CHO cell culture filtrate containing bevacizumab. Note: the amount of bevacizumab loaded to the column must be lower than the maximum capacity of the chromatographic matrix synthesized. • 5 Wash the column with adsorption buffer until the absorbance at 280 nm achieves the baseline value. • 6 Elute the bound protein by adding 20 mM sodium phosphate, pH 7.0. • 7 Measure total protein concentration with Bradford reagent using pure bevacizumab as the protein standard. • 8 Measure bevacizumab concentration by HPLC using a protein A analytical column as per Zou et al.. • 9 Perform sodium dodecyl sulfate polyacrylamide gel electrophoresis (SDS-PAGE) (12.5 % under reductive conditions) as described by Laemmli and stain gels with Coomassie Blue following the standard procedure.

In the case of Ac-PHQGQHIGVSK-NH2, the affinity for bevacizumab result in the data set on bevacizumab [1] was “binds bevacizumab with high affinity”.
In the case of “bevacizumab: anti-vascular endothelial growth factor (anti-VEGF) monoclonal antibody, produced in CHO cells”, in the data set on bevacizumab [2], the “integrity of bevacizumab (mAb)” value is given as “preserve the integrity”.
